Experimental data reported in ChEMBL document CHEMBL5375997, “Small Molecule Inhibitors Targeting the "Undruggable" Survivin: The Past, Present, and Future from a Medicinal Chemist's Perspective” (J Med Chem, 2023).

Legend:
PC-3 [1] = test: Cytotoxicity against human PC-3 cells assessed as reduction in cell growth incubated for 72 hrs by SRB assay; format: functional, cell-based; settings: PC-3, 72 h
MDA-MB-231 = test: Cytotoxicity against human MDA-MB-231 cells assessed as inhibition of cell growth incubated for 72 hrs by SRB assay; format: functional, cell-based; settings: MDA-MB-231, 72 h
HepG2 = test: Cytotoxicity against human HepG2 cells assessed as reduction in cell viability incubated for 72 hrs by SRB assay; format: functional, cell-based; settings: HepG2, 72 h
EL4 = test: Cytotoxicity against mouse EL4 cells assessed as inhibition of cell proliferation incubated for 72 hrs by MTT assay; format: functional, cell-based; settings: EL4, 72 h
L1210 = test: Antiproliferative activity against mouse L1210 cells assessed as reduction in cell viability incubated for 48 hrs by MTT assay; format: functional, cell-based; settings: L1210, 48 h
PC-3 [2] = test: Cytotoxicity against human PC-3 cells assessed as reduction in cell viability incubated for 24 hrs by MTT assay; settings: PC-3, 24 h
LNCaP C4-2 = test: Cytotoxicity against human LNCaP C4-2 cells assessed as cell growth inhibition incubated for 24 hrs by MTT assay; format: functional, cell-based; settings: LNCaP C4-2, 24 h
NCI-H69 = test: Antiproliferative activity against human NCI-H69 cells assessed as reduction in cell growth; format: functional, cell-based
HCT-116 = test: Cytotoxicity against human HCT-116 cells assessed as reduction in cell viability by MTT assay; format: functional, cell-based
MCF7 = test: Cytotoxicity against human MCF7 cells assessed as inhibition of cell growth by MTT assay; format: functional, cell-based
[3] = Cytotoxicity against human HepG2 cells assessed as reduction in cell viability by MTT assay; format: functional, cell-based
HeLa = test: Cytotoxicity against human HeLa cells assessed as inhibition of cell growth by MTT assay; format: functional, cell-based
A549 = test: Cytotoxicity against human A549 cells assessed as reduction in cell viability by MTT assay; format: functional, cell-based
DU-145 = test: Cytotoxicity against human DU-145 cells assessed as reduction in cell viability by SRB assay; format: functional, cell-based
A-375 = test: Anticancer activity against human A375 cells assessed as reduction in cell viability incubated for 72 hrs by MTT assay; format: functional, cell-based; settings: A-375, 72 h
CWR22R = test: Cytotoxicity against human 22Rv1 cells assessed as cell growth inhibition; format: functional, cell-based
SK-MEL-5 = test: Antiproliferative activity against human SK-MEL-5 cells assessed as reduction in cell viability; format: functional, cell-based
[4] = Tmax in human plasma at 10 mg/kg, iv measured after 24 hrs; format: ADME, organism-based
[5] = Half life in iv dosed human plasma; format: ADME, organism-based
[6] = AUC in mouse plasma at 3 mg/kg, iv measured upto 24 hrs by LC-MS/MS analysis; format: ADME, organism-based; set-up: dose 3 mg/kg, time < 24 hrs, route iv; settings: in vivo
[7] = Clearance in […] at 3 mg/kg, iv incubated for 24 hrs by LC-MS/MS analysis; format: ADME, organism-based; settings: in vivo
[8] = Cmax in […] at 1 mg/kg, iv and measured upto 24 hrs by LC/MS/MS analysis; format: ADME, organism-based; set-up: time < 24 hrs, dose 1 mg/kg, route iv; settings: in vivo
[9] = Half life in human plasma after iv dosing; settings: in vivo
[10] = Cytotoxicity against human HaCaT cells assessed as reduction in cell viability; format: toxicity, cell-based
[11] = Oral bioavailability in mouse plasma; format: ADME, organism-based
[12] = Cmax in […] at 1 mg/kg, po and measured upto 24 hrs by LC/MS/MS analysis; format: ADME, organism-based; set-up: time < 24 hrs, dose 1 mg/kg, route po; settings: in vivo

| Compound | IC50 (PC-3 [1]) [µM] | IC50 (MDA-MB-231) [µM] | IC50 (HepG2) [µM] | further results |
| --- | --- | --- | --- | --- |
| N#Cc1c(-c2ccc(Cl)cc2)cc(-c2ccc(OCc3ccc(F)cc3)cc2)[nH]c1=O | 14.4 | 14.4 | 14.4 | – |
| N#Cc1c(-c2ccccc2)cc(-c2ccc(OCc3ccc(F)cc3)cc2)[nH]c1=O | 14.4 | 14.4 | 14.4 | – |
| CO[C@]12CC(=O)O[C@]13C(=O)c1c(cc4cc(O)c5c(c4c1O)CN(C)C5=O)C(=O)[C@]3(O[C@H]1CC[C@H](O)[C@H](C)O1)CO2 | – | – | – | IC50 (EL4): 0.112 µM; IC50 (L1210): 0.153 µM |
| N#Cc1c(-c2ccccc2)cc(-c2ccc(OCc3ccc(F)cc3)cc2)nc1N | > 100 | > 100 | > 100 | – |
| N#Cc1c(-c2ccc(Br)cc2)cc(-c2ccc(OCc3ccc(F)cc3)cc2)[nH]c1=S | 23 | 23 | 23 | – |
| COc1ccc(-c2cc(-c3ccc(OCc4ccc(F)cc4)cc3)nc(N)c2C#N)cc1 | > 100 | > 100 | > 100 | – |
| N#Cc1c(-c2ccc(Br)cc2)cc(-c2ccc(OCc3ccc(F)cc3)cc2)[nH]c1=O | 14.4 | 14.4 | 14.4 | – |
| COc1cccc(Nc2nc3ccccc3nc2Nc2cccc(OC)c2OC)c1OC | – | – | – | IC50 (PC-3 [2]): 24.8 µM; IC50 (LNCaP C4-2): 17.6 µM |
| N#Cc1c(-c2ccc(Cl)cc2)cc(-c2ccc(OCc3ccc(F)cc3)cc2)[nH]c1=S | 23 | 23 | 23 | – |
| Oc1cc(CCCCc2cc(O)c(O)c(O)c2)cc(O)c1O | – | – | – | IC50 (NCI-H69): 6 µM |
| CC[C@@]1(O)C(=O)OCc2c1cc1n(c2=O)Cc2cc3c(-c4ccc(C(F)(F)F)cc4)c4c(cc3nc2-1)OCO4 | – | – | – | IC50 (HCT-116): 0.78 µM; IC50 (MCF7): 0.78 µM; IC50 [3]: 0.78 µM; IC50 (HeLa): 0.78 µM; IC50 (A549): 0.78 µM |
| N#Cc1c(-c2ccccc2)cc(-c2ccc(OCc3ccc(F)cc3)cc2)[nH]c1=S | 23 | 23 | 23 | – |
| Oc1ccc(CCCCc2ccc(O)cc2)cc1 | – | – | – | IC50 (NCI-H69): 3.9 µM |
| N#Cc1c(-c2ccc(Cl)cc2)cc(-c2ccc(OCc3ccc(F)cc3)cc2)nc1N | > 100 | > 100 | > 100 | – |
| N#Cc1c(-c2ccc(F)cc2)cc(-c2ccc(OCc3ccc(F)cc3)cc2)[nH]c1=O | 14.4 | 14.4 | 14.4 | – |
| COCCn1c2c([n+](Cc3cnccn3)c1C)C(=O)c1ccccc1C2=O.[Br-] [SEPANTRONIUM BROMIDE] | – | – | – | IC50 (DU-145): 0.004 µM; IC50 (A-375): 0.006 µM; IC50 (CWR22R): 0.011 µM; IC50 (SK-MEL-5): 0.004 µM; Tmax [4]: 46 h; half-life [5]: 26.3 h; AUC [6]: 1440 ng·h/mL; clearance [7]: 795 mL/min/kg; Cmax [8]: 10.7 ng/mL; half-life [9]: 17.2 h |
| COc1ccc(C[C@@H](C)[C@@H](C)Cc2ccc(OC)c(OC)c2)cc1OC [TERAMEPROCOL] | – | – | – | IC50 [10]: 85 µM; bioavailability [11]: 88.3%; AUC [6]: 2980 ng·h/mL; Cmax [8]: 1060 ng/mL; Cmax [12]: 442 ng/mL |
